Earlier results on 1 substance are cited in patent publication US20200121616A1, “COMPOSITIONS COMPRISING CANNABIDIOL AND HYALURONIC ACID FOR TREATING INFLAMMATORY JOINT DISEASES” (BOL PHARMA LTD., priority 2015, published 2020).

As for Hyaluronic acid, the pKa result is reported as “about 2.8”.
